Read-outs that look alike come from different tables or passages of the source.
Legend:
[1] = Radical scavenging effect (DPPH method); settings: for IC50: DPPH, absorption at 517 nm; for radical scavenging effect (in words): comment on Table 2, DPPH, 1 hour and 24 hours
Experimental: Measurement was made using the 1,1-diphenyl-2-picrylhydrazyl (DPPH) method [Blois, M. S. Nature, 1958, 181, 1190]. DPPH is a relatively stable radical with the maximum absorption at 517 nm. The absorption at this wavelength disappears upon removal of the radical. DPPH was purchased from Sigma Co. and dissolved in methanol to make the concentration of 0.5 mM.
First, 100 μl of each solution (10^−l to 10^−6 M) of the individual compounds prepared in examples 1 to 4 were placed in each well of a 96-well plate. After adding 100 μl of DPPH solution and standing the reaction mixture at the room temperature, the absorption at 517 nm was measured for each well using a micro plate reader (BioTeck EL-340). A blank solution was prepared to contain 100 μl of methanol instead of the above compounds. The concentration of the individual compounds was denoted by IC50 at the time when the absorption of the test sample becomes a half of that of the blank solution. The absorption was measured at 1 hour and at 24 hours after treatment.

[2] = target: Tyrosinase extracted from mushrooms; test: Inhibitory activity against tyrosinase; format: biochemical; settings: L-tyrosine substrate, DOPA cofactor, pH 6.8, 37° C., 10 minutes, absorbance at 475 nm
Experimental: Tyrosinase extracted from mushrooms was purchases from Sigma Co. First, L-tyrosine as a substrate was dissolved in a 0.05M phosphate buffer solution (pH 6.8) to have a concentration of 1.5 mM. 0.01 ml of this solution was added to a 0.3 ml spectrophotometer cuvette, followed by 0.01 ml of 0.06 mM dihydroxyphenylalamine (DOPA) as a cofactor. To this solution were added compounds of Formulas (II) and (III) and the phosphate buffer solution to have the total volume of 0.1 ml. […] Meanwhile, a blank was prepared by adding only 0.1 ml of the phosphate buffer solution. The reaction was performed at 37° C. for 10 minutes. The absorbance was measured at 475 nm with a spectrophotometer (Beckman DU-7500) to determine the inhibitory rate against tyrosinase. IC50 value was determined as the concentration of the inhibitor whose inhibitory rate against the enzyme amounts to 50%. Inhibitory Rate(%)=[(A−B)/A]×100 wherein A is the absorbance at 475 nm in a solution containing no inhibitor, and B is the absorbance at 475 nm in a solution containing an inhibitor.

[3] = female, naked mouse, 24 h, 5 % (w/v), pH 7.4
Experimental: More specifically, a dorsal skin of 8-weeks aged female mouse (naked mouse) was cut off and then 5% (w/v) solution of the test sample was applied in an amount of 50 μl to the skin having a size of 1.7 cm^2. Using the apparatus for measuring transdermal absorption test (Franz cell), after 24 hours, the absorbed material was extracted from 7 ml of the receptor solution [50 mM PBS buffer solution (pH=7.4) containing 2% Vol PO20 polyethylene oleyl ether (HLB=16)] and then quantitatively analyzed by HPLC.

[4] = 24 hours after treatment, read-out: Radical Scavenging Effect IC50 After 24 hrs.
[5] = read-out: Radical Scavenging Effect IC50 After 1 hour, 1 hour after treatment

Compound	IC50 [1, 4] [mM]	radical scavenging effect (in words) [1]	IC50 [1, 5] [mM]	IC50 [2] [mM]	Absorption Rate (%) [3] [%]	Total Transdermal Absorption Amount [3] [mg]
2-O-PEG350-Ascorbic Acid	5.9	potent radical scavenging effect in a short time	7.9	1.97		
2-O-PEG550-Ascorbic Acid	4.2	potent radical scavenging effect in a short time	7.9	7.06		
3-O-PEG350-Ascorbic Acid	5.9	an increase in the radical scavenging effect with an elapse of time	78.7	9.8		
3-O-PEG550-ascorbic acid		an increase in the radical scavenging effect with an elapse of time		7.06		
CCOC1=C(O)C(=O)O[C@@H]1[C@@H](O)CO [3-O-Ethyl-ascorbic acid, reference compound]	9.8		9.8	9.8		
O=C1O[C@H]([C@@H](O)CO)C(O)=C1O [Ascorbic acid]	3.4		3.4	0.47	1.2	0.03
